enrich.exp.med, enrich.exp.med.lin and enrich.exp.med.log2 data for two molecules are collected here from publication PMC10176470, “Engaging a Non-catalytic Cysteine Residue Drives Potent and Selective Inhibition of Caspase-6” (Journal of the American Chemical Society, 2023).

Experiment [1] deals with proteins of HEK293T cells transiently overexpressing caspase-6 (Homo sapiens, UniProt P30050). Format: cell-based. To be noted: protein RPL12 (P30050).
Experiment [2] deals with proteins of HEK293T cells transiently overexpressing caspase-6 (Homo sapiens, UniProt O00299). As to the kind of experiment: SILAC proteomics / in-gel fluorescence, competition of probe 13-t labeling by 3a. To be noted: Comp; protein CLIC1 O00299.
Experimental: (§1) Cells were lysed, and heavy and light SILAC lysates were combined in a 1:1 ratio and subjected to CuAAC reaction with azido-biotin to biotinylate probe-labeled proteins for subsequent capture on streptavidin-coated beads. Bead-bound proteins were split for analysis by in-gel fluorescence and tryptic digestion on-bead for LC–MS/MS analysis.
(§2) SILAC labeling and alkyne probe treatment: HEK293T cells were seeded into 8x 15 cm plates at
(§3) a density of 500,000 cells/plate. 4 of these plates were grown in light SILAC DMEM and 4 were
(§4) grown in heavy SILAC DMEM all containing 10% FBS and 4.5g/L glucose. The next day, all 8
(§5) plates were transfected with a pCMV6-Entry plasmid coding for caspase-6-myc-DDK lacking the
(§6) prodomain. After 24 hours, media was replaced with fresh SILAC growth media containing 4.5 g/L
(§7) glucose and 3% FBS. 24 hours later the plates were treated with probe and inhibitor for 1 hours as
(§8) follows: 2 of the light plates were treated with vehicle, 2 light plates and 2 heavy plates treated with
(§9) for 60 minutes. After treatment, media was removed, and cells were washed with 15 mL PBS for 5
(§10) minutes. Cells were then harvested by scraping in cold PBS and lysed in the presence of Roche
(§11) complete protease inhibitors. Lysates were clarified by centrifugation at 10,000xg for 10 minutes and
(§12) the protein in the supernatant was quantified by BCA assay.
(§13) Proteomics assay: 1 mg of each lysate was diluted to 2mg/ml in PBS with Roche complete protease
(§14) inhibitors. To this was added 0.1 mM biotin-azide, 1 mM tris(2-carboxyethyl)phosphine (TCEP), 0.1
(§15) mM Tris((1-benzyl-4-triazolyl)methyl)amine (TBTA) ligand, and 1 mM CuSO4 in a final volume of
(§16) 0.5 mL. The reaction was incubated at room temperature for 1 hour and was vortexed every 15
(§17) minutes. After 1 hour, proteins are precipitated and are pelleted by centrifuging at 16,000xg for 4
(§18) min at 4 °C. The supernatants were discarded, and the pellets were solubilized with 0.5 mL cold
(§19) The cold methanol wash was then repeated, and the washed
(§20) pellets were resuspended in 1 mL of 1.2% SDS and sonicated until clear. The samples were heat
(§21) denatured at 80-90 °C for 5 minutes and any insoluble particles were removed by centrifugation at
(§22) 6,500xg for 5 minutes. The 1 mL supernatant was transferred to a 15 mL conical tubes containing 5
(§23) mL of PBS and 150 µL of washed neutravidin beads were added. The samples were incubated for 2
(§24) hours at 4 °C while rotating, at which point the samples were warmed to resolubilize any precipitated
(§25) SDS. The beads were pelleted by centrifugation at 1400xg for 3 min and washed for 10 minutes with
(§26) the following solutions: 2x 1% NP-40, 2x PBS + 1 M NaCl, and 2x 50 mM ammonium bicarbonate
(§27) (ABC) + 2 M urea. The beads were then transferred to a 1.5 mL microcentrifuge tube using 2x250
(§28) µL 100 mM Tris pH 8.0 + 4 M Guanidium hydrochloride (final volume 500 µL).
Experiment [3] deals with proteins of HEK293T cells transiently overexpressing caspase-6 (Homo sapiens, UniProt P07437). The description is as above. The settings on record: Comp; protein TUBB P07437.
Experimental: as §1, §2, §3, §4, §5, §6, §7, §8, §9, §10, §11, §12, §13, §14, §15, §16, §17, §18, §19, §20, §21, §22, §23, §24, §25, §26, §27, §28
Experiment [4] has as its target proteins of HEK293T cells transiently overexpressing caspase-6 (Homo sapiens, UniProt P08238). The description is as above. To be noted: Comp; protein HSP90AB1 P08238.
Experimental: as §1, §2, §3, §4, §5, §6, §7, §8, §9, §10, §11, §12, §13, §14, §15, §16, §17, §18, §19, §20, §21, §22, §23, §24, §25, §26, §27, §28
The target of experiment [5] is proteins of HEK293T cells transiently overexpressing caspase-6 (Homo sapiens, UniProt P11142). The experiment is described as above. The settings on record: Comp; protein HSPA8 P11142.
Experimental: as §1, §2, §3, §4, §5, §6, §7, §8, §9, §10, §11, §12, §13, §14, §15, §16, §17, §18, §19, §20, §21, §22, §23, §24, §25, §26, §27, §28
Experiment [6] deals with proteins of HEK293T cells transiently overexpressing caspase-6 (Homo sapiens, UniProt P27695). The experiment is described as above. To be noted: Comp; protein APEX1 P27695.
Experimental: as §1, §2, §3, §4, §5, §6, §7, §8, §9, §10, §11, §12, §13, §14, §15, §16, §17, §18, §19, §20, §21, §22, §23, §24, §25, §26, §27, §28
In experiment [7] the target is T1, proteins of HEK293T cells transiently overexpressing caspase-6 (Homo sapiens, UniProt P30041).
T1 sequence (P30041 1-224): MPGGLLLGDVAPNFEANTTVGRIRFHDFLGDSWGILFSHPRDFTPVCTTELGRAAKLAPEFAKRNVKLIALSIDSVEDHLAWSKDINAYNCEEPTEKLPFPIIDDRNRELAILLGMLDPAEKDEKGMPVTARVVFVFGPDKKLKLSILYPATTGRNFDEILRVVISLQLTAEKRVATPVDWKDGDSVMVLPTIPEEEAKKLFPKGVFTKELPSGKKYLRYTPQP
The experiment is described as above. To be noted: Comp; protein PRDX6 P30041.
Experimental: as §1, §2, §3, §4, §5, §6, §7, §8, §9, §10, §11, §12, §13, §14, §15, §16, §17, §18, §19, §20, §21, §22, §23, §24, §25, §26, §27, §28

The target in experiment [8] is proteins of HEK293T cells transiently overexpressing caspase-6 (Homo sapiens, UniProt P31939). The description is as above. The settings on record: Comp; protein ATIC P31939.
Experimental: as §1, §2, §3, §4, §5, §6, §7, §8, §9, §10, §11, §12, §13, §14, §15, §16, §17, §18, §19, §20, §21, §22, §23, §24, §25, §26, §27, §28
Experiment [9] has as its target proteins of HEK293T cells transiently overexpressing caspase-6 (Homo sapiens, UniProt P46060). Described as above. To be noted: Comp; protein RANGAP1 P46060.
Experimental: as §1, §2, §3, §4, §5, §6, §7, §8, §9, §10, §11, §12, §13, §14, §15, §16, §17, §18, §19, §20, §21, §22, §23, §24, §25, §26, §27, §28
Experiment [10] addresses proteins of HEK293T cells transiently overexpressing caspase-6 (Homo sapiens, UniProt P62917). Described as above. The settings on record: Comp; protein RPL8 P62917.
Experimental: as §1, §2, §3, §4, §5, §6, §7, §8, §9, §10, §11, §12, §13, §14, §15, §16, §17, §18, §19, §20, §21, §22, §23, §24, §25, §26, §27, §28
Experiment [11] addresses proteins of HEK293T cells transiently overexpressing caspase-6 (Homo sapiens, UniProt P83731). The experiment is described as above. To be noted: Comp; protein RPL24 P83731.
Experimental: as §1, §2, §3, §4, §5, §6, §7, §8, §9, §10, §11, §12, §13, §14, §15, §16, §17, §18, §19, §20, §21, §22, §23, §24, §25, §26, §27, §28
For experiment [12], the target named is proteins of HEK293T cells transiently overexpressing caspase-6 (Homo sapiens, UniProt Q07020). The experiment is described as above. To be noted: Comp; protein RPL18 Q07020.
Experimental: as §1, §2, §3, §4, §5, §6, §7, §8, §9, §10, §11, §12, §13, §14, §15, §16, §17, §18, §19, §20, §21, §22, §23, §24, §25, §26, §27, §28
The target in experiment [13] is proteins of HEK293T cells transiently overexpressing caspase-6 (Homo sapiens, UniProt Q14566). The description is as above. To be noted: Comp; protein MCM6 Q14566.
Experimental: as §1, §2, §3, §4, §5, §6, §7, §8, §9, §10, §11, §12, §13, §14, §15, §16, §17, §18, §19, §20, §21, §22, §23, §24, §25, §26, §27, §28
The target in experiment [14] is T2, proteins of HEK293T cells transiently overexpressing caspase-6 (Homo sapiens, UniProt Q8WUM4).
T2 sequence (Q8WUM4 1-868): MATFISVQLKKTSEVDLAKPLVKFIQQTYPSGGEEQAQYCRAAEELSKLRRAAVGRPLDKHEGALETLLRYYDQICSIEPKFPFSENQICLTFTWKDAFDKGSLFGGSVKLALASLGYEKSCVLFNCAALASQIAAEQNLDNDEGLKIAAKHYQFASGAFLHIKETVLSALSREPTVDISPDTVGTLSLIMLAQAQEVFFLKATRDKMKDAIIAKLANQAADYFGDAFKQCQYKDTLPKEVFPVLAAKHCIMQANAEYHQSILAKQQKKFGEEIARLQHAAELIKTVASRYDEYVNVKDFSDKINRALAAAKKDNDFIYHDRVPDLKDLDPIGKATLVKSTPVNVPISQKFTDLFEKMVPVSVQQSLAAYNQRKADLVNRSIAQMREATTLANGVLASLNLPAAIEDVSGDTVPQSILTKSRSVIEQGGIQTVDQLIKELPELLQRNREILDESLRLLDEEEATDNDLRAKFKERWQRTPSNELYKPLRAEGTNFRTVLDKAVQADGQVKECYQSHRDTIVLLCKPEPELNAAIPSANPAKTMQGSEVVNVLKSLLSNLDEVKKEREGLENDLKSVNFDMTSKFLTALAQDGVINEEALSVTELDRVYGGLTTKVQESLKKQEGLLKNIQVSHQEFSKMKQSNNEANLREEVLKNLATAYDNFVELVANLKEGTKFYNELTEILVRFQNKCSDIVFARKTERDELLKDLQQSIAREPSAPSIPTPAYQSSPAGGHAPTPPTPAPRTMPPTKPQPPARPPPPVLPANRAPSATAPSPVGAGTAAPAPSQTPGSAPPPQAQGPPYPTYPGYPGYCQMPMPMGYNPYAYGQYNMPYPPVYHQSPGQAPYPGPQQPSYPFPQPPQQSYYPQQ
The experiment is described as above.
Experimental: as §1, §2, §3, §4, §5, §6, §7, §8, §9, §10, §11, §12, §13, §14, §15, §16, §17, §18, §19, §20, §21, §22, §23, §24, §25, §26, §27, §28

The mark [15] stands for this setting: protein PDCD6IP (Q8WUM4), Exp Comp, analysis C6, p 0.5000, 2 peptides.

Sequence of proteins of HEK293T cells transiently overexpressing caspase-6 (Homo sapiens, UniProt Q14566) (Q14566 whole entry): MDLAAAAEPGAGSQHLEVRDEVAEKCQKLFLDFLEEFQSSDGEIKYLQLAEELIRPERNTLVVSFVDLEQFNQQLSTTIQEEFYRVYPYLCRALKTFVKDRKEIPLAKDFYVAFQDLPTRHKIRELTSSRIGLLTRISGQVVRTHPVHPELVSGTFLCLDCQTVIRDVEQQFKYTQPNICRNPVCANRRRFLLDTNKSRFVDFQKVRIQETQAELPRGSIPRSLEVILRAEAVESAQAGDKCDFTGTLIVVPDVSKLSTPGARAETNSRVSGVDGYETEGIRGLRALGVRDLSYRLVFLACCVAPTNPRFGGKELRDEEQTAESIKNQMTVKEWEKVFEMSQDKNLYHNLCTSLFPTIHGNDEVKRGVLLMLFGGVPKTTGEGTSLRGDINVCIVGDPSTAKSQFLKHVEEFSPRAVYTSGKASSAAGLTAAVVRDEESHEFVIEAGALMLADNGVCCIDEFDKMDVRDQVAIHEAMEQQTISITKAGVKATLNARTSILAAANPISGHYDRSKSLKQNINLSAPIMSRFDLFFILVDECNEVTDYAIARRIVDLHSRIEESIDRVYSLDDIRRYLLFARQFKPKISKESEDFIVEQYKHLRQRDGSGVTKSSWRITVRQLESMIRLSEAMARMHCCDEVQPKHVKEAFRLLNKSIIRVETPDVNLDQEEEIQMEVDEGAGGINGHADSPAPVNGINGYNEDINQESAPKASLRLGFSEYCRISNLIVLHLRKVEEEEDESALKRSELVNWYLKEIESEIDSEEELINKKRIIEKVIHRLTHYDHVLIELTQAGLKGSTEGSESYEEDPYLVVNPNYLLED
Sequence of proteins of HEK293T cells transiently overexpressing caspase-6 (Homo sapiens, UniProt P31939) (P31939 whole entry): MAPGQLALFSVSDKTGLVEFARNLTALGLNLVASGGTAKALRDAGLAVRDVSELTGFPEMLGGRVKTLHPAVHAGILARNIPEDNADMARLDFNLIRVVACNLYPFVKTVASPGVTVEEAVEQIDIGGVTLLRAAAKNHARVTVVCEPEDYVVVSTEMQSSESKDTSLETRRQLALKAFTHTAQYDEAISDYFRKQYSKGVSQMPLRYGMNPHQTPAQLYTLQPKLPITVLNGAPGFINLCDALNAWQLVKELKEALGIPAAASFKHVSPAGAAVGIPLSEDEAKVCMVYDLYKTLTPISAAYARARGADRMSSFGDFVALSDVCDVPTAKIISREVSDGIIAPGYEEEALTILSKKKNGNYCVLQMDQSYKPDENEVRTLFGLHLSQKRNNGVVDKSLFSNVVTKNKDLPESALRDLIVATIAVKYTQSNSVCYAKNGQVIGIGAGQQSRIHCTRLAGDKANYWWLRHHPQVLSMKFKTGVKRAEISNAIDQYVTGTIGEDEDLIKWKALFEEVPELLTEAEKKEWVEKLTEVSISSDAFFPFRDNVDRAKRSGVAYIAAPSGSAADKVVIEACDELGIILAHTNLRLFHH
Sequence of proteins of HEK293T cells transiently overexpressing caspase-6 (Homo sapiens, UniProt P46060) (P46060 whole entry): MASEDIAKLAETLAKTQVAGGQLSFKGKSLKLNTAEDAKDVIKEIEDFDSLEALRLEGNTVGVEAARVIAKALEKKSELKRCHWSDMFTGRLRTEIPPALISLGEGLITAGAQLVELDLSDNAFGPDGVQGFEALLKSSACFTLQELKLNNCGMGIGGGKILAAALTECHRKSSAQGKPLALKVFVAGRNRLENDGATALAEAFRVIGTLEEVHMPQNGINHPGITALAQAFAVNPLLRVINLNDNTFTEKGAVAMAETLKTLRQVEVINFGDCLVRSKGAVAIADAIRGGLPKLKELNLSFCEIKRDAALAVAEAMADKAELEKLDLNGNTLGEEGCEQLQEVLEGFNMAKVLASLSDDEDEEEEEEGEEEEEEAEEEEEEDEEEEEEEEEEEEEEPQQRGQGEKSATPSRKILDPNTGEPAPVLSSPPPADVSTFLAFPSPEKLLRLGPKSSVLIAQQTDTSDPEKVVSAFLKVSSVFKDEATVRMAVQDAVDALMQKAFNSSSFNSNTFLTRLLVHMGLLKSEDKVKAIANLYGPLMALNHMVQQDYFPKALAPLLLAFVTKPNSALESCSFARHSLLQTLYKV
Sequence of proteins of HEK293T cells transiently overexpressing caspase-6 (Homo sapiens, UniProt P11142) (P11142 whole entry): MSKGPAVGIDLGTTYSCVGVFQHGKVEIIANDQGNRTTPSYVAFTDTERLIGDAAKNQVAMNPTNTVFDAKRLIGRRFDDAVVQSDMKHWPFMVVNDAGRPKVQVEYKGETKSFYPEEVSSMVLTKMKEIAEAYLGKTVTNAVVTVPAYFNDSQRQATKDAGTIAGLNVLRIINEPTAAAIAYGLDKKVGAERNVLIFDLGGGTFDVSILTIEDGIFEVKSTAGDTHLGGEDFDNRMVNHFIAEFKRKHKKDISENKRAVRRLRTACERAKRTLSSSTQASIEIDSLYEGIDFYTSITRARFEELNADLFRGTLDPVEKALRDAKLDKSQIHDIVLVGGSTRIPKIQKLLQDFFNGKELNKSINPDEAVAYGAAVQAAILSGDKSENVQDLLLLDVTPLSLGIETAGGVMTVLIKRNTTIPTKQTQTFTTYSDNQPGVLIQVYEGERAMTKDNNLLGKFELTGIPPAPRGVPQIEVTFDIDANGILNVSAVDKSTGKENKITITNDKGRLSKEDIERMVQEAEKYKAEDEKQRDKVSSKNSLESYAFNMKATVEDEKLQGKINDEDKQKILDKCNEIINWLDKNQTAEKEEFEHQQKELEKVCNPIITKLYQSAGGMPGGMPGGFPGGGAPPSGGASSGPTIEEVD
Sequence of proteins of HEK293T cells transiently overexpressing caspase-6 (Homo sapiens, UniProt P07437) (P07437 whole entry): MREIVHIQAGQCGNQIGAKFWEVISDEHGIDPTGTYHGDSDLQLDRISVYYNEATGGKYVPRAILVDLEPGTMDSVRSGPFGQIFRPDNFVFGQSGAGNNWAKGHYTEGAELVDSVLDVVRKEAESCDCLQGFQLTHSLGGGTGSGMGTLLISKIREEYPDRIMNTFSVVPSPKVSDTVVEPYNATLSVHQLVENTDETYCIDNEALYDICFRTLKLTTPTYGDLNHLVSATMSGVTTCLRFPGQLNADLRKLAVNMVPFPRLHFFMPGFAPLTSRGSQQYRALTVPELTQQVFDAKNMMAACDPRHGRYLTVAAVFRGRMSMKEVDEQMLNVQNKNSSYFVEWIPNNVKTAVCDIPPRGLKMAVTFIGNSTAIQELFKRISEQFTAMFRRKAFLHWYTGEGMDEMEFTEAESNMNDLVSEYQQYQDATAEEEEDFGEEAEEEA
Sequence of proteins of HEK293T cells transiently overexpressing caspase-6 (Homo sapiens, UniProt P08238) (P08238 whole entry): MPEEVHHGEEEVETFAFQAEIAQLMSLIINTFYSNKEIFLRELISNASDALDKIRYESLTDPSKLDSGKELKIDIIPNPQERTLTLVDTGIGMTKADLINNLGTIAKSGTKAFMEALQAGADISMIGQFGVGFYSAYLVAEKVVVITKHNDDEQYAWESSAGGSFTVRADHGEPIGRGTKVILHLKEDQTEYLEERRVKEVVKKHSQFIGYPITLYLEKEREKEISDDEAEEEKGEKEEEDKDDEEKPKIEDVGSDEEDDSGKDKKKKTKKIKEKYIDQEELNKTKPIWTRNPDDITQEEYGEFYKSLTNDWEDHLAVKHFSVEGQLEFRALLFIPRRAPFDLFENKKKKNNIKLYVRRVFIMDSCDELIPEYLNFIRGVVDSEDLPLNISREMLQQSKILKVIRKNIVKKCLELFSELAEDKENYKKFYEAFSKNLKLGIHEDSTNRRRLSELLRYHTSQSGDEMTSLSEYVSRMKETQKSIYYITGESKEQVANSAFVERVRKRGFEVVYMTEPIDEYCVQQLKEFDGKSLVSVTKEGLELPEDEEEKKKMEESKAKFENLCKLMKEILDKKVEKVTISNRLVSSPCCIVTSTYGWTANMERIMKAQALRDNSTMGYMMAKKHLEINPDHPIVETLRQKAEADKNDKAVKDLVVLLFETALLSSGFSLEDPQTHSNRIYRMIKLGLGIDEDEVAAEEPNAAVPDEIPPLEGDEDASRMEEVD
Sequence of proteins of HEK293T cells transiently overexpressing caspase-6 (Homo sapiens, UniProt P27695) (P27695 whole entry): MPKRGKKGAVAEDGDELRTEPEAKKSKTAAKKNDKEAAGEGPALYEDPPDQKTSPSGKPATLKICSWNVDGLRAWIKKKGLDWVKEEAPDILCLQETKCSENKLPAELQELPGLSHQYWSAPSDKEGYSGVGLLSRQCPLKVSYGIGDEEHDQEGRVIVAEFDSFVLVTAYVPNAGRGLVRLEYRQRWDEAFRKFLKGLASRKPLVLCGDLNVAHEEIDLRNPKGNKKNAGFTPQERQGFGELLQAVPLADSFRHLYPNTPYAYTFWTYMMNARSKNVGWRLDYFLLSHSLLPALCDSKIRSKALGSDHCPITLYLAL

Regarding `C#CCOc1ccc([C@@H]2C[C@@H](C(=O)Nc3ccc(OC(F)(F)F)cc3)CN(S(=O)(=O)C=C)C2)cc1` (relative stereo) [13-t], in experiment [1] (exp_ref Probe, analysis C6), the enrich.exp.med was found to be 0.2557. In [1], this molecule showed an enrich.exp.med.lin of 1.194 and an enrich.exp.med.log2 of 0.2557.

Take `C=CS(=O)(=O)N1C[C@H](C(=O)Nc2ccc(OC(F)(F)F)cc2)C[C@@H](c2ccccc2)C1` [3a]: the enrich.exp.med in experiment [2] was found to be 0.583; in experiment [3], 0.8512; in experiment [4], 0.6024; in experiment [5], 0.6036; in experiment [6], 0.6367; in [7] it was 0.6066. Moreover, the enrich.exp.med in [8] is given as 0.7149; in experiment [9], 0.6389; in [10] it was 0.8074; in experiment [11] it was 0.668; in experiment [12], 0.6186; in [13], 0.8484. The enrich.exp.med in experiment [14] (Comp, protein PDCD6IP Q8WUM4) stood at 1. This molecule also had an enrich.exp.med.lin in experiment [14] (setting [15]) of 2. In experiment [14] (setting [15]), this molecule displayed an enrich.exp.med.log2 of 1.
